The values below come from US20190330189A1, “ANTIBACTERIAL COMPOUNDS” (Janssen Sciences Ireland UC, priority 2015, published 2019).

For data set [1], the system named is Mycobacterium tuberculosis strain H37Rv. The experiment in a line: Test 1: MIC determination, resazurin fluorescence, M. tuberculosis H37Rv. The format is cell-based. The note with it: Mycobacterium tuberculosis, H37RV. (In general: The colour change of resazurin is a common sign of viable cells or microbes.)
For data set [2], the system named is Mycobacterium tuberculosis strain EH 4.0 (361.269). Nature of the data set: Test 4: MIC determination, resazurin fluorescence, strain EH 4.0. Type of data set: cell-based. The note with it: for IC50: Mycobacterium tuberculosis, read-out: pIC50, Test 4, M. tuberculosis strain EH 4.0 (361.269) (converted); for pIC50: Test 4, M. tuberculosis strain EH 4.0 (361.269). An outline of the steps:
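M. tuberculosis EH 4.0 (361.269) from stationary-phase culture, ~5×10^5 CFU/well in 7H9 medium with compound dilutions. Incubated 7 days at 37 °C, then resazurin added; MIC from fluorescence.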

In data set [3] the test system is replicating and non-replicating bacteria. The following applies: cited from earlier work.
A further data set concerns M. tuberculosis H37Rv. The following applies: strain M. tuberculosis H37Rv, inside macrophages; cited from earlier work.
The mark [4] stands for this setting: Test 1, M. tuberculosis H37Rv, first test, read-out: pIC50 (converted).
The mark [5] stands for this setting: Test 1, repeated (2nd) test, read-out: pIC50 * (converted).
The mark [6] stands for this setting: Test 1, repeated (3rd) test, read-out: pIC50 ** (converted).

In brackets after ≈: the same amount, converted by molar mass. Where two headings read alike, the source gives them in different places.

In general, melting point refers to the temperature of the solid-liquid transition. With `CCc1nc2ncc(Cl)cn2c1C(=O)NCc1ccc(N2CC3(C2)CN(c2ccc(OC(F)(F)F)cc2)C3)cc1` [Compound 5], the melting point came to 242.43 °C. Further, in data set [1] (setting [4]), the IC50 was 69.2 nM. Moreover, the IC50 in data set [1] (setting [5]) is 74.1 nM. In addition, the IC50 in data set [1] (setting [6]) is 74.1 nM. In addition, in data set [2], the IC50 is 31.6 nM.
Molecule `CCc1nc2ccc(Cl)cn2c1C(=O)NCc1ccc(N2CC3(C2)CN(c2ccc(OC(F)(F)F)cc2)C3)cc1` [Compound 4] came in with a melting point of 184.57 °C. The IC50 in data set [1] (setting [4]) is 120 nM. For the same molecule, in data set [2], the IC50 was 5.01 nM.
What is called pIC50 is −log10 of the IC50, conventionally taken in molar units. Low readings indicate a large IC50, high ones a small IC50. Regarding `CCc1nc2ncc(Cl)cn2c1C(=O)NCc1ccc(N2CC3(CC(=O)C3)C2)cc1` [Compound 126], the melting point is 187.49 °C. For the same molecule, in data set [2], the IC50 was 10000 nM and the pIC50 stood at 4.9.
In the case of `CCc1nn2ccccc2c1C(=O)NCc1ccc(C2CC3(C2)CN(c2ccc(OC(F)(F)F)cc2)C3)cc1` [Compound 138], the melting point stood at 105.98 °C. The IC50 in data set [2] was 39.8 nM.
The like results for `CCc1nc2sc(C)cn2c1C(=O)NCc1ccc(N2CC3(C2)CN(c2ccc(OC(F)(F)F)cc2)C3)cc1` [Compound 68] were, in that order, 180.57 °C and 63.1 nM.
The like results for `CCc1nc2ccc(Cl)cn2c1C(=O)NCc1ccc(N2CC3(CC(c4ccnn4C)C3)C2)cc1` [Compound 158] were, in that order, 101.95 °C and 398 nM.
The like results for `CCc1nc2n(c1C(=O)NCc1ccc(N3CC4(CC(OC)C4)C3)cc1)CCCC2` [Compound 85] were, in that order, 147.41 °C and 1000 nM.
For the molecule `CCc1nc2n(c1C(=O)NCc1ccc(N3CC4(CC(c5ccc(OC(F)(F)F)cc5)C4)C3)cc1)CCCC2` [Compound 82], the melting point came to 190.78 °C. Further, in data set [2], the IC50 is 63.1 nM.
The like results for `CCc1nc2n(c1C(=O)NCc1ccc(N3CC4(CC(OC(F)(F)F)C4)C3)cc1)CCCC2` [Compound 130] were, in that order, 169.56 °C and 15.8 nM.
As for `CCc1nc2sc(C)cn2c1C(=O)NCc1ccc(N2CC3(CCC3)C2)cc1` [Compound 12], the melting point was 300 °C. Moreover, the IC50 in data set [1] (setting [4]) was 129 nM. Also, the IC50 in data set [1] (setting [5]) was 70.8 nM. Further, the IC50 in data set [1] (setting [6]) was 107 nM. For the same molecule, the IC50 in data set [2] was 31.6 nM.
In turn, `CCc1nc2ncc(Cl)cn2c1C(=O)NCc1ccc(N2CC3(CC(OC(F)(F)F)C3)C2)cc1` [Compound 131] yielded a melting point of 172.76 °C. The IC50 in data set [2] is 5.01 nM.
The like results for `CCc1nn2c(Cl)cccc2c1C(=O)NCc1ccc(C2CC3(C2)CN(c2ccc(OC(F)(F)F)cc2)C3)cc1` [Compound 146] were, in that order, 119.23 °C and 316 nM.
The like results for `CCc1nc2ccc(Cl)cn2c1C(=O)NCc1ccc(C2CC3(C2)CN(C(=O)C(F)(F)F)C3)cc1` [Compound 92] were, in that order, 80.75 °C and 251 nM.
The like results for `CCc1nc2ccc(Cl)cn2c1C(=O)NCc1ccc(N2CC3(CC(=O)C3)C2)cc1` [Compound 96] were, in that order, 182.82 °C and 126 nM.
Regarding `CCc1nc2sc(C)cn2c1C(=O)NCc1ccc(N2CC3(CC(O)C3)C2)cc1` [Compound 20], the melting point was 300 °C. In addition, the IC50 in data set [2] was 316 nM.
With `Cc1nn2ccccc2c1C(=O)NCc1ccc(C2CC3(C2)CN(c2ccc(S(F)(F)(F)(F)F)cc2)C3)cc1` [Compound 160], the melting point worked out at 166.29 °C. Further, the IC50 in data set [2] is 31.6 nM.
The like results for `CCc1nc2ccc(Cl)cn2c1C(=O)NCc1ccc(N2CC3(CC(n4cncn4)C3)C2)cc1` [Compound 123] were, in that order, 166.63 °C and 1580 nM.
The like results for `CCc1nn2c(c1C(=O)NCc1ccc(C3CC4(C3)CN(c3ccc(OC(F)(F)F)cc3)C4)cc1)CCCC2` [Compound 139] were, in that order, 135.21 °C and 7940 nM.
For the molecule `CCc1nc2ccc(Cl)cn2c1C(=O)NCc1ccc(N2CCC(c3ccc(OC(F)(F)F)cc3)CC2)cc1` [Compound Q203, Q203], the “activity against replicating and non-replicating bacteria” value in data set [3] is reported as “highly active”. Also, in the data set with M. tuberculosis H37Rv, the MIC50 is 0.28 nM (≈ 0.156 ng/mL).
On to `CCc1nc2ncc(Cl)cn2c1C(=O)NCc1ccc(N2CC3(CC(Oc4ccc(F)cc4)C3)C2)cc1` [Compound 152], for which the melting point was found to be 350 °C. In data set [2], the IC50 is 15.8 nM.
The like results for `CCc1nc2ccc(Cl)cn2c1C(=O)NCc1ccc(C2CC3(C2)CN(c2cnccn2)C3)cc1` [Compound 132] were, in that order, 149.46 °C and 7940 nM.
The like results for `CCc1nc2ccc(Cl)cn2c1C(=O)NCc1ccc(N2CC3(CC(OC)C3)C2)cc1` [Compound 84] were, in that order, 137.48 °C and 100 nM.
For `CCc1nc2ccc(Cl)cn2c1C(=O)NCc1ccc(N2CC3(CC(c4nccs4)C3)C2)cc1` [Compound 124], the melting point was determined as 135.97 °C. Moreover, in data set [2], the IC50 was 79.4 nM and the pIC50 is given as 7.2.
For the molecule `CCc1nc2ncc(Cl)cn2c1C(=O)NCc1ccc(N2CC3(CC(OC)C3)C2)cc1` [Compound 86], the melting point stood at 127.22 °C. The IC50 in data set [2] was 158 nM.
The like results for `CCc1nn2c(OC)cccc2c1C(=O)NCc1ccc(C2CC3(C2)CN(c2ccc(OC(F)(F)F)cc2)C3)cc1` [Compound 147] were, in that order, 151.74 °C and 1260 nM.
`CCc1nc2ccc(Cl)cn2c1C(=O)NCc1ccc(N2CC3(CC(OC(F)(F)F)C3)C2)cc1` [Compound 117] registered a melting point of 167.85 °C. Besides, the IC50 in data set [2] is 20 nM.
The like results for `CCc1nc2ccc(Cl)cn2c1C(=O)NCc1ccc(N2CC3(CN(C(C)=O)C3)C2)cc1` [Compound 90] were, in that order, 237.63 °C and 12600 nM.
The like results for `Cc1nn2ccccc2c1C(=O)NCc1ccc(N2CC3(C2)CN(c2ccc(S(F)(F)(F)(F)F)cc2)C3)cc1` [Compound 162] were, in that order, 238.06 °C and 7940 nM.
The like results for `CCc1nc2ccc(Cl)cn2c1C(=O)NCc1ccc(N2CC3(CN(C(=O)c4ccccc4)C3)C2)cc1` [Compound 91] were, in that order, 204.21 °C and 10000 nM.
For the molecule `Cc1nn2ccccc2c1C(=O)NCc1ccc(C2CC3(C2)CN(c2ccc(OC(F)(F)F)cc2)C3)cc1` [Compound 141], the melting point amounted to 158.48 °C. The IC50 in data set [2] was 31.6 nM.
The like results for `CCc1nc2ccc(Cl)cn2c1C(=O)NCc1ccc(N2CC3(CC(c4ccncc4)C3)C2)cc1` [Compound 89] were, in that order, 192.86 °C and 6310 nM.
In turn, `Cc1nc2sc(F)cn2c1C(=O)NCc1ccc(N2CC3(CC(=O)C3)C2)cc1` [Compound 118] showed a melting point of 201.34 °C. The IC50 in data set [2] is 12600 nM.
The like results for `CCc1nc2ncc(Cl)cn2c1C(=O)NCc1ccc(N2CCC3(CC2)CC(F)(F)C3)cc1` [Compound 133] were, in that order, 84.29 °C and 2 nM.
The like results for `CCc1nc2ccc(Cl)cn2c1C(=O)NCc1ccc(N2CC3(CCN(c4ccc(OC(F)(F)F)cc4)C3)C2)cc1` [Compound 76] were, in that order, 136.04 °C and 25.1 nM.
The like results for `CCc1nn2ccccc2c1C(=O)NCc1ccc(C2CC3(C2)CN(c2ccc(S(F)(F)(F)(F)F)cc2)C3)cc1` [Compound 159] were, in that order, 177.08 °C and 39.8 nM.
The molecule `CCc1nc2ncc(Cl)cn2c1C(=O)NCc1ccc(N2CCC3(CC2)CC(OC(F)(F)F)C3)cc1` [Compound 153] returned a melting point of 150.61 °C. Also, the IC50 in data set [2] was 2 nM.
Molecule `CCc1nc2ccc(Cl)cn2c1C(=O)NCc1ccc(N2CCC3(CC2)CC(F)(F)C3)cc1` [Compound 125] displayed a melting point of 146.77 °C. The IC50 in data set [2] was 2 nM.
Take `CCc1nn2ccccc2c1C(=O)NCc1ccc(N2CC3(CC(c4ccc(OC(F)(F)F)cc4)C3)C2)cc1` [Compound 161]: the melting point came to 126.57 °C. For the same molecule, the IC50 in data set [2] is 2510 nM.
The like results for `Cc1nn2ccccc2c1C(=O)NCC1CC2(CCN(c3ccc(OC(F)(F)F)cc3)CC2)C1` [Compound 140] were, in that order, 121.52 °C and 1580 nM.
